Experimental findings from ChEMBL document CHEMBL1201862, “PubChem BioAssay data set” (2004) are described below.

Broadly, the GI50 is the concentration at which growth is held to half of that of the control.

Some test systems named below: ACHN; COLO 205; EKVX; HCT-116; HCT-15; M14; MOLT-4; NCI-H460; OVCAR-4; OVCAR-5; SK-OV-3; SN12C; SNB-19; SW-620; UO-31.
Holding throughout (test): DTP human tumour cell line panel, 48 h

Molecules are shown by their SMILES.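 How tested: cells in 96-well plates exposed to compound for 48 hours at five concentrations. GI50 = concentration required for 50% inhibition of growth.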 Calls of active or inactive are those of the source. No stated cut-off is given here; in the data, active = GI50 up to about 1.1 µM and inactive = higher.

In the case of `CC(=O)Nc1ccc(/C=C/C(=O)c2sc(-n3nc(-c4ccccc4)cc3-c3ccccc3)nc2C)cc1`, the GI50 with ACHN is > 10 µM (inactive); in the test on COLO 205, > 10 µM (inactive); in the test with EKVX, 8.99 µM (inactive); in the test with HCT-116, > 10 µM (inactive); in the test with HCT-15, over 10 µM; with M14 it was > 10 µM (inactive). Besides, the GI50 is > 10 µM (inactive) in the test on MOLT-4; > 10 µM (inactive) with NCI-H460; 78.7 µM (inactive) in the test with OVCAR-4; > 10 µM (inactive) in the test on OVCAR-5; > 10 µM (inactive) with SK-OV-3; > 10 µM (inactive) in the test with SN12C. In addition, the GI50 with SNB-19, in the test on SW-620 and in the test on UO-31 was > 10 µM (inactive) each time.

`C=CCC12CC(=O)CCC1c1ccc(OC)cc1C2=O` (stereo not given): the GI50 in the test on ACHN is > 100 µM (inactive); with COLO 205, > 100 µM (inactive); with EKVX, > 100 µM (inactive); in the test with HCT-116, > 100 µM (inactive); in the test on HCT-15, over 100 µM; in the test on M14, > 100 µM (inactive). In addition, the GI50 in the test with MOLT-4, with NCI-H460, in the test on OVCAR-4, in the test with OVCAR-5, with SK-OV-3 and in the test with SN12C was > 100 µM (inactive) each time. Moreover, the GI50 in the test with SNB-19, in the test on SW-620 and in the test with UO-31 was > 100 µM (inactive) each time.

Take `NC1CC(n2ccc(=O)[nH]c2=O)OC1C(O)CO` (stereo not given): the GI50 with ACHN is > 100 µM (inactive); in the test with COLO 205, > 100 µM (inactive); in the test with EKVX, > 100 µM (inactive); in the test with HCT-116, > 100 µM (inactive); with HCT-15, over 100 µM; with M14, > 100 µM (inactive). In addition, the GI50 in the test with MOLT-4, in the test on NCI-H460, with OVCAR-4, in the test with OVCAR-5, in the test with SK-OV-3 and with SN12C was > 100 µM (inactive) each time. Also, the GI50 in the test on SNB-19, in the test on SW-620 and in the test on UO-31 was > 100 µM (inactive) each time.

In the case of `CCOC(=O)N[C@@H]1C2CC(=O)C(O2)[C@@H]1OC` (stereo not given in full), the GI50 was > 100 µM (inactive) with ACHN; > 100 µM (inactive) in the test with COLO 205; > 100 µM (inactive) with EKVX; > 100 µM (inactive) with HCT-116; over 100 µM in the test with HCT-15; > 100 µM (inactive) in the test with M14. The GI50 with MOLT-4, in the test with NCI-H460, with OVCAR-4, in the test on OVCAR-5, in the test on SK-OV-3 and with SN12C was > 100 µM (inactive) each time. The GI50 in the test with SNB-19, in the test with SW-620 and with UO-31 was > 100 µM (inactive) each time.

Consider `COC(=O)C(=O)C1CCCCC(C2=NC3NN=C(N)N3C2=O)C1=O` (stereo not given), for which the GI50 in the test with ACHN was > 100 µM (inactive); in the test on COLO 205 it was > 100 µM (inactive); in the test with EKVX, > 100 µM (inactive); with HCT-116, > 100 µM (inactive); in the test with HCT-15, over 100 µM; in the test with M14 it was > 100 µM (inactive). In addition, the GI50 in the test with MOLT-4, with NCI-H460, in the test with OVCAR-4, in the test with OVCAR-5, in the test on SK-OV-3 and in the test with SN12C was > 100 µM (inactive) each time. Further, the GI50 in the test with SNB-19, in the test on SW-620 and in the test on UO-31 was > 100 µM (inactive) each time.

Turning to `Cc1c(Cl)ccc2c1NC(=O)C2(O)CC(=O)c1ccc(Cl)cc1` (stereo not given), the GI50 was > 100 µM (inactive) with ACHN; 32.4 µM (inactive) in the test with COLO 205; > 55.8 µM (inactive) with EKVX; 27.5 µM (inactive) in the test on HCT-116; 28.2 µM in the test with HCT-15; > 100 µM (inactive) with M14. Also, the GI50 was 17.7 µM (inactive) in the test on MOLT-4; 29.6 µM (inactive) in the test with NCI-H460; 43.7 µM (inactive) in the test on OVCAR-4; > 100 µM (inactive) in the test on OVCAR-5; > 100 µM (inactive) in the test on SK-OV-3; 26.8 µM (inactive) in the test with SN12C. The GI50 in the test on SNB-19 was 97.3 µM (inactive); in the test on SW-620, 29.9 µM (inactive); in the test with UO-31, > 100 µM (inactive).

In the case of `COC(=O)C(Cc1nc2ccccc2nc1O)C(=O)C(=O)Nc1ccc(OC)cc1[N+](=O)[O-]` (stereo not given), the GI50 is > 100 µM (inactive) with ACHN; > 100 µM (inactive) in the test on COLO 205; > 100 µM (inactive) in the test on EKVX; > 100 µM (inactive) in the test with HCT-116; over 100 µM in the test on HCT-15; > 100 µM (inactive) with M14. Also, the GI50 in the test with MOLT-4, with NCI-H460, with OVCAR-4, with OVCAR-5, in the test with SK-OV-3 and with SN12C was > 100 µM (inactive) each time. Also, the GI50 in the test with SNB-19, with SW-620 and with UO-31 was > 100 µM (inactive) each time.

For the molecule `CCNC(=O)COc1ccc(Br)cc1Br`, the GI50 in the test with ACHN was > 100 µM (inactive); with COLO 205, > 100 µM (inactive); in the test on EKVX, 1.98 µM (inactive); in the test on HCT-116, > 100 µM (inactive); in the test on HCT-15 it was over 100 µM; in the test with M14, > 100 µM (inactive). The GI50 in the test with MOLT-4, in the test on NCI-H460, in the test on OVCAR-4, in the test on OVCAR-5, with SK-OV-3 and in the test on SN12C was > 100 µM (inactive) throughout. For the same molecule, the GI50 was 54.7 µM (inactive) in the test with SNB-19, > 100 µM (inactive) with SW-620 and > 100 µM (inactive) in the test on UO-31.

Take `NC(CCC(=O)Nc1ccc(O)cc1)C(=O)O` (stereo not given): the GI50 is > 100 µM (inactive) in the test on ACHN; > 100 µM (inactive) in the test with COLO 205; > 100 µM (inactive) with EKVX; > 100 µM (inactive) in the test on HCT-116; over 100 µM with HCT-15; > 100 µM (inactive) in the test on M14. Besides, the GI50 in the test on MOLT-4, in the test on NCI-H460, in the test on OVCAR-4, in the test on OVCAR-5, with SK-OV-3 and in the test on SN12C was > 100 µM (inactive) in each case. The GI50 with SNB-19, with SW-620 and with UO-31 was > 100 µM (inactive) each time.

Regarding `Nc1ccc(N)c2c1C(=O)c1c(N)ccc(N)c1C2=O`, the GI50 with ACHN is 27.5 µM (inactive); in the test on COLO 205 it was 58.6 µM (inactive); in the test with EKVX, > 64.9 µM (inactive); in the test with HCT-116 it was > 73.3 µM (inactive); with HCT-15, over 66.5 µM; in the test on M14 it was > 77.3 µM (inactive). The GI50 with MOLT-4 was 25.9 µM (inactive); in the test on NCI-H460, > 73.5 µM (inactive); in the test on OVCAR-4 it was 37.1 µM (inactive); in the test with OVCAR-5, > 100 µM (inactive); with SK-OV-3, > 74.5 µM (inactive); in the test with SN12C, > 63.5 µM (inactive). Besides, the GI50 with SNB-19 was 47.8 µM (inactive); with SW-620, 52.6 µM (inactive); in the test on UO-31 it was 41.8 µM (inactive).
